Data on 20 compounds can be found in ChEMBL document CHEMBL5241104, “Reactive metabolites of the anticonvulsant drugs and approaches to minimize the adverse drug reaction” (Eur J Med Chem, 2021).

Data set [1] has as its system Mus musculus. As to the kind of experiment: Anticonvulsant activity in mouse assessed as protection against maximal electroshock induced seizure at ip administration for 5 mins. The class given is functional. For orientation: The maximal electroshock test induces tonic seizures with an electrical stimulus.
The subject of data set [2] is Mus musculus. Briefly: Anticonvulsant activity in Albino mouse assessed as protection against maximal electroshock induced seizure at ip administration for 30 mins. Conditions: 0.5 h. The class given is functional.
The nature of data set [3]: Toxicity in Swiss CD-1 mouse assessed as mortality at 100 mg/kg,ip. The class given is organism-based. Conditions: in vivo.
Data set [4] in a line: Toxicity in Swiss albino mouse assessed as lethality at 30 mg/kg,ip. The class given is organism-based. The note with it: in vivo, read-out: Activity.
Data set [5] can be described thus: Toxicity in Swiss albino mouse assessed as median toxicity dose at ip administration. The class given is organism-based. Conditions: in vivo.
For data set [6], the system named is Rattus norvegicus. Briefly: Anticonvulsant activity against maximal electroshock induced seizure in Wistar albino rat assessed as reduction of time spent in extension phase at 10 mg/kg,ip administrated for 30 mins by electroconvulsive therapy. The class given is functional. More on the design: scale not given: the % may be the effect or the level left. Conditions: 0.5 h.

Data set [7] concerns Rattus norvegicus. As to the kind of experiment: Anticonvulsant activity against maximal electroshock induced seizure in Wistar albino rat assessed as reduction of time spent in flexion phase at 10 mg/kg,ip administrated for 30 mins by electroconvulsive therapy. The data set is classed as functional. Further details: scale not given: the % may be the effect or the level left. Conditions: 0.5 h.

Data set [8] deals with Rattus norvegicus. As to the kind of experiment: Anticonvulsant activity against maximal electroshock induced seizure in Wistar albino rat assessed as reduction of time spent in stupor phase at 10 mg/kg,ip administrated for 30 mins by electroconvulsive therapy. The data set is classed as functional. More on the design: scale not given: the % may be the effect or the level left. Conditions: 0.5 h.

Data set [9] has as its system Rattus norvegicus. As to the kind of experiment: Anticonvulsant activity against maximal electroshock induced seizure in Wistar albino rat assessed as reduction of time spent in clonus phase at 10 mg/kg,ip administrated for 30 mins by electroconvulsive therapy. The data set is classed as functional. Further details: scale not given: the % may be the effect or the level left. The note with it: 0.5 h.

Data set [10] relates to Mus musculus. Briefly: Anticonvulsant activity in Swiss albino mouse assessed as inhibition of maximal electroshock induced seizure at ip administration. The data set is classed as functional.
The test system of data set [11] is Mus musculus. As to the kind of experiment: Anticonvulsant activity in Albino mouse assessed as protection against Sc-PTZ induced seizure at ip administration. The data set is classed as functional.
The test system of data set [12] is Mus musculus. Briefly: Anticonvulsant activity in Albino mouse assessed as protection against maximal electroshock induced seizure at ip administration. The data set is classed as functional.
The nature of data set [13]: Protective index, ratio of TD50 for toxicity in Albino mouse assessed as median neurotoxicity dose at ip administration by rotorod test to ED50 for anticonvulsant activity in Albino mouse assessed as protection against Sc-PTZ induced seizure at ip administration. The class given is organism-based. Conditions: in vivo, read-out: Ratio TD50/ED50. In general terms: The rotarod test checks motor coordination on a turning rod.

Data set [14] in a line: Protective index, ratio of TD50 for toxicity in Albino mouse assessed as median neurotoxicity dose at ip administration by rotorod test to ED50 for anticonvulsant activity in Albino mouse assessed as protection against maximal electroshock induced seizure at ip administration. The class given is organism-based. The note with it: in vivo, read-out: Ratio TD50/ED50.
Data set [15] has as its system Mus musculus. As to the kind of experiment: Anticonvulsant activity in Albino mouse brain assessed as increase in GABA level at 30 to 300 mg/kg,ip by spectrophotometric method. The class given is functional. Conditions: dose 30-300 mg/kg.
Data set [16] concerns Mus musculus. As to the kind of experiment: Anticonvulsant activity in Swiss albino mouse assessed as protection against Sc-PTZ induced seizure at po administration. The class given is functional.
Data set [17] has as its system Mus musculus. As to the kind of experiment: Anticonvulsant activity in Swiss mouse assessed as protection against Sc-PTZ induced seizure at ip administration. The data set is classed as functional.
Data set [18] concerns Rattus norvegicus. Briefly: Anticonvulsant activity against maximal electroshock induced seizure in Wistar rat assessed as reduction of time spent in extension phase at 50 mg/kg,po administration. The data set is classed as functional.
For data set [19], the system named is Rattus norvegicus. As to the kind of experiment: Anticonvulsant activity in Wistar rat assessed as protection against maximal electroshock induced seizure at po administration for 60 mins. The data set is classed as functional. Conditions: 1 h.
For data set [20], the system named is Rattus norvegicus. Briefly: Anticonvulsant activity in Wistar rat assessed as protection against maximal electroshock induced seizure by measuring median effective dose at po administration. The data set is classed as functional.
The species entered for data set [21] is Rattus norvegicus. Briefly: Inhibition of sodium uptake in rat cerebral cortical synaptosomes at 30 uM incubated for 30 mins by scintillation counting analysis. The class given is functional. Conditions: Cerebral cortex, Synaptosome.
Data set [22] concerns Rattus norvegicus. Briefly: Anticonvulsant activity in Wistar rat assessed as protection against maximal electroshock induced seizure at po administration. The class given is functional.
For data set [23], the species on record is Rattus norvegicus. Briefly: Inhibition of sodium uptake in rat cerebral cortical synaptosomes at 300 uM incubated for 30 mins by scintillation counting analysis. The data set is classed as functional. The note with it: Cerebral cortex, Synaptosome.
Data set [24] in a line: Displacement of 3[H]BTX from rat cerebral cortical synaptosomes voltage-sensitive sodium channel incubated for 1.5 hrs by scintillation counting analysis. The data set is classed as subcellular, Cerebral cortex, Synaptosome.
The species named for data set [25] is Rattus norvegicus. Briefly: Inhibition of sodium uptake in rat cerebral cortical synaptosomes at 100 uM incubated for 30 mins by scintillation counting analysis. The data set is classed as functional. The note with it: Cerebral cortex, Synaptosome.
Data set [26] can be described thus: Protective index, ratio of TD50 for toxicity in Wistar rat assessed as median toxicity dose at po administration by rotorod test to ED50 for anticonvulsant activity in Wistar rat assessed as protection against maximal electroshock induced seizure at po administration. The class given is organism-based. The note with it: in vivo, read-out: Ratio TD50/ED50.
For data set [27], the system named is Mus musculus. As to the kind of experiment: Anticonvulsant activity in mouse assessed as inhibition of maximal electroshock induced seizure at 200 mg/kg,po administration for 120 mins. The class given is functional. The note with it: 2 h.
Data set [28] can be described thus: Protective index, ratio of TD50 for toxicity in Sc-PTZ induced Swiss albino mouse seizure model assessed as median neurotoxicity dose at po administration by rotorod test to ED50 for anticonvulsant activity in Swiss albino mouse assessed as protection against Sc-PTZ induced seizure at po administration. The class given is organism-based. The note with it: in vivo, read-out: Ratio TD50/ED50.

The structures appear in SMILES notation. pIC50: −log10 of the molar value.

As to `O=C(NC1CCCCC1)C(c1ccc(Cl)cc1)N1Cc2cnnn2-c2ccccc2C1=O` (centres undefined), the Activity in the data set with Mus musculus [1] is 100%.

Take `O=C1Nc2ccc(Cl)cc2C(c2ccccc2)=NC1/N=N/c1ccc(F)cc1` (centres undefined): in the data set on Mus musculus [2], the Activity was 100%.

With `COc1ccccc1N1CCN(CCCN2CCCC2=O)CC1`, the mortality in [3] was 25%.

On to `O=C1Nc2ccc(Cl)cc2C(c2ccccc2)=NC1/N=N/c1ccc(Cl)cc1` (centres undefined), for which the Activity in the data set on Mus musculus [2] is 100%.

Turning to `COc1ccc(NC(=O)CN2C(=O)C3(Nc4ccccc4-c4nc(=O)c(C)nn43)c3ccccc32)cc1` (centres undefined), the mortality in data set [4] came to 20%.

As for `CCOc1ccccc1N1CCN(CCCN2CCCC2=O)CC1`, the mortality in [3] came out at 25%.

For the compound `CCCC(CCC)C(=O)N/N=C/c1ccncc1`, the TD50 in [5] was 346 mg/kg.

With `CCN(CC)CN1C(=O)/C(=N\c2nnc(-c3cccc(Cl)c3Cl)c(/N=C3\C(=O)N(CN(CC)CC)c4ccc(Cl)cc43)n2)c2cc(Cl)ccc21`, the Activity in the data set on Rattus norvegicus [6] is 47.87%; in the data set on Rattus norvegicus [7] it was 29.31%; in the data set on Rattus norvegicus [8], 30.21%; in the data set on Rattus norvegicus [9] it was 39.4%.

Turning to `COc1ccccc1/C=C1/N=C(c2ccccc2)c2cc([N+](=O)[O-])ccc2NC1=O`, the “inhibition (INH)” value in the data set on Mus musculus [10] was 69%.

As for `CN(C)c1ccc(/C=N/Nc2nnc(-c3ccccc3)nc2Cc2cccc(Cl)c2)cc1`, the figures for the ED50 in the data set on Mus musculus [11] and with Mus musculus [12] were 92 mg/kg and 54.3 mg/kg, respectively. Besides, the selectivity ratio in [13] amounted to 4.73; in [14], 8.01. Also, the Activity in the data set with Mus musculus [15] is 39.7 mg.

As for `O=C1Nc2ccc(Br)cc2C12Nc1ccccc1-c1nc(=O)c(-c3ccccc3)nn12` (centres undefined), the mortality in [4] came out at 30%.

Turning to `O=C(O)CCCCCn1c(-c2ccccc2)nc(-c2ccccc2)c1-c1ccccc1`, the Activity with Mus musculus [16] is 100%.

With `O=C1NC(=O)C(c2ccccc2)(c2ccccc2)N1` [PHENYTOIN], the ED50 in the data set with Mus musculus [17] is over 300 mg/kg.

`O=[N+]([O-])c1ccc(C2CC(c3ccc(Cl)cc3)=Nc3ccccc3N2)cc1` (centres undefined): in the data set with Rattus norvegicus [18], the Time came out at 7.25 s. In addition, in the data set on Rattus norvegicus [19], the Activity is 56%.

In the case of `CC(=O)O[C@H]1Cc2ccccc2N(C(N)=O)c2ccccc21` [ESLICARBAZEPINE ACETATE], in the data set on Rattus norvegicus [20], the ED50 amounted to 4.7 mg/kg. In addition, the inhibition in the data set filed under Rattus norvegicus [21] stood at 52.6%; in the data set filed under Rattus norvegicus [23] it was 95.6%; in the data set filed under Rattus norvegicus [25], 73.4%. Besides, the Activity in the data set on Rattus norvegicus [22] turned out to be 100%. Further, the pIC50 in [24] was 3.95. Moreover, the selectivity ratio in data set [26] turned out to be 76.3.

As for `CCCC(CCC)C(=O)N/N=C/c1cc(OC)ccc1OC`, the TD50 in [5] was determined as 457 mg/kg.

As to `CCCC(CCC)c1nnc(S)n1-c1ccccc1`, the TD50 in data set [5] is 371 mg/kg.

As for `CC1(C)O[C@@H]2O[C@@]3(COS(N)(=O)=O)OC(C)(C)OC3[C@@H]2O1` (some centres undefined), the inhibition in vivo at 200 mg/kg in the data set with Mus musculus [27] is at least 80%.

Turning to `C=C(C)CC(CCC)C(=O)O` (racemic), the selectivity ratio in data set [28] turned out to be 2.05.

For the compound `O=C1CCCN1CC(O)CN1CCN(c2ccccc2O)CC1` (centres undefined), in data set [3], the mortality amounted to 14.2%.

For orientation: TD50 means the 50% point of the dose-response relation for the toxic effect studied. The ED50 is the dose at which the effect has come halfway, by size or by number of responders. As a reminder, the inhibition is how much of the control response was suppressed. The term pIC50 denotes the IC50 on a negative log10 scale, so that one unit is a factor of ten. For orientation: inhibition in vivo means how much of the control response was suppressed.
